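Grown in 96-well plates, cells were treated for 48 hours with each compound at five concentrations. Insufficient inhibition: endpoint recorded as highest concentration tested. The concentration for full growth arrest is given as TGI.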
System: HCT-15 colon
Test: inhibition of tumour cell growth, NCI panel, 48 h

Q: With `Oc1ccc(-c2nc3ccc(Br)cc3s2)cc1` as the compound, how does the TGI read?
A: 67.5 µM

Q: Which TGI does the source give for `Nc1nc(SCCC/C=C/I)nc2c1ncn2C1OC(COP(=O)(O)O)C(O)C1O` (configuration not stated) here?
A: > 100 µM

Q: For `Nc1c(S(=O)(=O)O)cc2cc(S(=O)(=O)O)ccc2c1N=Nc1ccc(-c2ccc(N=Nc3c(N)c(S(=O)(=O)O)cc4cc(S(=O)(=O)O)ccc34)c(S(=O)(=O)O)c2)cc1`, which TGI is on record?
A: > 100 µM

Q: For `N=c1nnc2ccc(Cl)cc2n1O`, which TGI is on record?
A: > 100 µM

Q: `CCN(CC)CCNC(=O)c1cc2cc(NC(=O)c3cc4cc([N+](=O)[O-])ccc4[nH]3)ccc2[nH]1` was tested. Which TGI did it give?
A: > 100 µM

Q: `CC1=C(Cl)C=CP(=O)(Oc2ccccc2)C1` (configuration not stated) was tested. Which TGI did it give?
A: > 100 µM

Q: With `COc1ccc(/C=c2\sc3n(c2=O)CCN=3)cc1` as the compound, how does the TGI read?
A: > 100 µM

System: K-562 leukemia
Test: inhibition of tumour cell growth, NCI panel, 48 h

Q: `COc1ccc(C(=C2C=CC=C2)c2ccc(OC)cc2)cc1` was tested. Which TGI did it give?
A: > 100 µM

Q: How did the TGI turn out when `Oc1ccc(-c2nc3ccc(Br)cc3s2)cc1` was run?
A: 73.1 µM

Q: With `Nc1nc(SCCC/C=C/I)nc2c1ncn2C1OC(COP(=O)(O)O)C(O)C1O` (configuration not stated) as the compound, how does the TGI read?
A: > 100 µM

Q: For `Nc1c(S(=O)(=O)O)cc2cc(S(=O)(=O)O)ccc2c1N=Nc1ccc(-c2ccc(N=Nc3c(N)c(S(=O)(=O)O)cc4cc(S(=O)(=O)O)ccc34)c(S(=O)(=O)O)c2)cc1`, which TGI is on record?
A: > 100 µM

Q: With `N=c1nnc2ccc(Cl)cc2n1O` as the compound, how does the TGI read?
A: > 100 µM

Q: Which TGI does the source give for `CC1=C(Cl)C=CP(=O)(Oc2ccccc2)C1` (configuration not stated) here?
A: > 10 µM

Q: With `COc1ccc(/C=c2\sc3n(c2=O)CCN=3)cc1` as the compound, how does the TGI read?
A: > 100 µM

System: SF-268 CNS
Test: inhibition of tumour cell growth, NCI panel, 48 h

Q: With `COc1ccc(C(=C2C=CC=C2)c2ccc(OC)cc2)cc1` as the compound, how does the TGI read?
A: > 100 µM

Q: With `Oc1ccc(-c2nc3ccc(Br)cc3s2)cc1` as the compound, how does the TGI read?
A: 57.4 µM

Q: With `Nc1nc(SCCC/C=C/I)nc2c1ncn2C1OC(COP(=O)(O)O)C(O)C1O` (configuration not stated) as the compound, how does the TGI read?
A: > 100 µM

Q: For `Nc1c(S(=O)(=O)O)cc2cc(S(=O)(=O)O)ccc2c1N=Nc1ccc(-c2ccc(N=Nc3c(N)c(S(=O)(=O)O)cc4cc(S(=O)(=O)O)ccc34)c(S(=O)(=O)O)c2)cc1`, which TGI is on record?
A: > 100 µM

Q: With `N=c1nnc2ccc(Cl)cc2n1O` as the compound, how does the TGI read?
A: > 100 µM

Q: Which TGI does the source give for `CCN(CC)CCNC(=O)c1cc2cc(NC(=O)c3cc4cc([N+](=O)[O-])ccc4[nH]3)ccc2[nH]1` here?
A: > 100 µM

Q: How did the TGI turn out when `CC1=C(Cl)C=CP(=O)(Oc2ccccc2)C1` (configuration not stated) was run?
A: > 100 µM

System: OVCAR-3 ovarian
Test: inhibition of tumour cell growth, NCI panel, 48 h

Q: How did the TGI turn out when `COc1ccc(C(=C2C=CC=C2)c2ccc(OC)cc2)cc1` was run?
A: > 100 µM

Q: With `Oc1ccc(-c2nc3ccc(Br)cc3s2)cc1` as the compound, how does the TGI read?
A: 31.8 µM

Q: `Nc1nc(SCCC/C=C/I)nc2c1ncn2C1OC(COP(=O)(O)O)C(O)C1O` (configuration not stated) was tested. Which TGI did it give?
A: > 100 µM

Q: `Nc1c(S(=O)(=O)O)cc2cc(S(=O)(=O)O)ccc2c1N=Nc1ccc(-c2ccc(N=Nc3c(N)c(S(=O)(=O)O)cc4cc(S(=O)(=O)O)ccc34)c(S(=O)(=O)O)c2)cc1` was tested. Which TGI did it give?
A: > 100 µM

Q: `CCN(CC)CCNC(=O)c1cc2cc(NC(=O)c3cc4cc([N+](=O)[O-])ccc4[nH]3)ccc2[nH]1` was tested. Which TGI did it give?
A: > 57 µM

Q: `CC1=C(Cl)C=CP(=O)(Oc2ccccc2)C1` (configuration not stated) was tested. Which TGI did it give?
A: > 100 µM

Q: `COc1ccc(/C=c2\sc3n(c2=O)CCN=3)cc1` was tested. Which TGI did it give?
A: > 100 µM

System: SF-295 CNS
Test: inhibition of tumour cell growth, NCI panel, 48 h

Q: For `COc1ccc(C(=C2C=CC=C2)c2ccc(OC)cc2)cc1`, which TGI is on record?
A: 54.4 µM

Q: With `Oc1ccc(-c2nc3ccc(Br)cc3s2)cc1` as the compound, how does the TGI read?
A: 33 µM

Q: `Nc1nc(SCCC/C=C/I)nc2c1ncn2C1OC(COP(=O)(O)O)C(O)C1O` (configuration not stated) was tested. Which TGI did it give?
A: > 100 µM

Q: For `Nc1c(S(=O)(=O)O)cc2cc(S(=O)(=O)O)ccc2c1N=Nc1ccc(-c2ccc(N=Nc3c(N)c(S(=O)(=O)O)cc4cc(S(=O)(=O)O)ccc34)c(S(=O)(=O)O)c2)cc1`, which TGI is on record?
A: > 100 µM

Q: With `N=c1nnc2ccc(Cl)cc2n1O` as the compound, how does the TGI read?
A: > 100 µM

Q: For `CCN(CC)CCNC(=O)c1cc2cc(NC(=O)c3cc4cc([N+](=O)[O-])ccc4[nH]3)ccc2[nH]1`, which TGI is on record?
A: 65.6 µM

Q: With `CC1=C(Cl)C=CP(=O)(Oc2ccccc2)C1` (configuration not stated) as the compound, how does the TGI read?
A: > 100 µM

Q: With `COc1ccc(/C=c2\sc3n(c2=O)CCN=3)cc1` as the compound, how does the TGI read?
A: > 100 µM

System: HCC-2998 colon
Test: inhibition of tumour cell growth, NCI panel, 48 h

Q: For `COc1ccc(C(=C2C=CC=C2)c2ccc(OC)cc2)cc1`, which TGI is on record?
A: 42.6 µM

Q: Which TGI does the source give for `Nc1nc(SCCC/C=C/I)nc2c1ncn2C1OC(COP(=O)(O)O)C(O)C1O` (configuration not stated) here?
A: > 100 µM

Q: With `Nc1c(S(=O)(=O)O)cc2cc(S(=O)(=O)O)ccc2c1N=Nc1ccc(-c2ccc(N=Nc3c(N)c(S(=O)(=O)O)cc4cc(S(=O)(=O)O)ccc34)c(S(=O)(=O)O)c2)cc1` as the compound, how does the TGI read?
A: > 100 µM

Q: With `N=c1nnc2ccc(Cl)cc2n1O` as the compound, how does the TGI read?
A: > 100 µM

Q: With `CCN(CC)CCNC(=O)c1cc2cc(NC(=O)c3cc4cc([N+](=O)[O-])ccc4[nH]3)ccc2[nH]1` as the compound, how does the TGI read?
A: > 73.6 µM

Q: Which TGI does the source give for `CC1=C(Cl)C=CP(=O)(Oc2ccccc2)C1` (configuration not stated) here?
A: > 100 µM

Q: How did the TGI turn out when `COc1ccc(/C=c2\sc3n(c2=O)CCN=3)cc1` was run?
A: > 100 µM

System: OVCAR-8 ovarian
Test: inhibition of tumour cell growth, NCI panel, 48 h

Q: With `COc1ccc(C(=C2C=CC=C2)c2ccc(OC)cc2)cc1` as the compound, how does the TGI read?
A: > 100 µM

Q: How did the TGI turn out when `Oc1ccc(-c2nc3ccc(Br)cc3s2)cc1` was run?
A: 49.3 µM

Q: How did the TGI turn out when `Nc1nc(SCCC/C=C/I)nc2c1ncn2C1OC(COP(=O)(O)O)C(O)C1O` (configuration not stated) was run?
A: > 100 µM

Q: For `Nc1c(S(=O)(=O)O)cc2cc(S(=O)(=O)O)ccc2c1N=Nc1ccc(-c2ccc(N=Nc3c(N)c(S(=O)(=O)O)cc4cc(S(=O)(=O)O)ccc34)c(S(=O)(=O)O)c2)cc1`, which TGI is on record?
A: > 100 µM

Q: How did the TGI turn out when `N=c1nnc2ccc(Cl)cc2n1O` was run?
A: 92.4 µM

Q: Which TGI does the source give for `CCN(CC)CCNC(=O)c1cc2cc(NC(=O)c3cc4cc([N+](=O)[O-])ccc4[nH]3)ccc2[nH]1` here?
A: > 100 µM

Q: Which TGI does the source give for `CC1=C(Cl)C=CP(=O)(Oc2ccccc2)C1` (configuration not stated) here?
A: 60.6 µM

Q: Which TGI does the source give for `COc1ccc(/C=c2\sc3n(c2=O)CCN=3)cc1` here?
A: > 100 µM

System: NCI-H460 lung
Test: inhibition of tumour cell growth, NCI panel, 48 h

Q: Which TGI does the source give for `COc1ccc(C(=C2C=CC=C2)c2ccc(OC)cc2)cc1` here?
A: 86.7 µM

Q: `Oc1ccc(-c2nc3ccc(Br)cc3s2)cc1` was tested. Which TGI did it give?
A: 52.8 µM

Q: Which TGI does the source give for `Nc1nc(SCCC/C=C/I)nc2c1ncn2C1OC(COP(=O)(O)O)C(O)C1O` (configuration not stated) here?
A: > 100 µM

Q: For `Nc1c(S(=O)(=O)O)cc2cc(S(=O)(=O)O)ccc2c1N=Nc1ccc(-c2ccc(N=Nc3c(N)c(S(=O)(=O)O)cc4cc(S(=O)(=O)O)ccc34)c(S(=O)(=O)O)c2)cc1`, which TGI is on record?
A: > 31.6 µM

Q: Which TGI does the source give for `CCN(CC)CCNC(=O)c1cc2cc(NC(=O)c3cc4cc([N+](=O)[O-])ccc4[nH]3)ccc2[nH]1` here?
A: > 100 µM

Q: `CC1=C(Cl)C=CP(=O)(Oc2ccccc2)C1` (configuration not stated) was tested. Which TGI did it give?
A: > 100 µM

Q: `COc1ccc(/C=c2\sc3n(c2=O)CCN=3)cc1` was tested. Which TGI did it give?
A: > 100 µM

System: M14 melanoma
Test: inhibition of tumour cell growth, NCI panel, 48 h

Q: With `COc1ccc(C(=C2C=CC=C2)c2ccc(OC)cc2)cc1` as the compound, how does the TGI read?
A: > 100 µM

Q: For `Oc1ccc(-c2nc3ccc(Br)cc3s2)cc1`, which TGI is on record?
A: 39.6 µM

Q: `Nc1nc(SCCC/C=C/I)nc2c1ncn2C1OC(COP(=O)(O)O)C(O)C1O` (configuration not stated) was tested. Which TGI did it give?
A: > 100 µM

Q: For `N=c1nnc2ccc(Cl)cc2n1O`, which TGI is on record?
A: > 100 µM

Q: Which TGI does the source give for `CCN(CC)CCNC(=O)c1cc2cc(NC(=O)c3cc4cc([N+](=O)[O-])ccc4[nH]3)ccc2[nH]1` here?
A: > 100 µM

Q: With `CC1=C(Cl)C=CP(=O)(Oc2ccccc2)C1` (configuration not stated) as the compound, how does the TGI read?
A: 38.2 µM

Q: How did the TGI turn out when `COc1ccc(/C=c2\sc3n(c2=O)CCN=3)cc1` was run?
A: > 100 µM

System: RXF 393 renal
Test: inhibition of tumour cell growth, NCI panel, 48 h

Q: How did the TGI turn out when `COc1ccc(C(=C2C=CC=C2)c2ccc(OC)cc2)cc1` was run?
A: 61.7 µM

Q: With `Oc1ccc(-c2nc3ccc(Br)cc3s2)cc1` as the compound, how does the TGI read?
A: > 100 µM

Q: How did the TGI turn out when `Nc1nc(SCCC/C=C/I)nc2c1ncn2C1OC(COP(=O)(O)O)C(O)C1O` (configuration not stated) was run?
A: > 100 µM

Q: How did the TGI turn out when `Nc1c(S(=O)(=O)O)cc2cc(S(=O)(=O)O)ccc2c1N=Nc1ccc(-c2ccc(N=Nc3c(N)c(S(=O)(=O)O)cc4cc(S(=O)(=O)O)ccc34)c(S(=O)(=O)O)c2)cc1` was run?
A: > 100 µM

Q: Which TGI does the source give for `N=c1nnc2ccc(Cl)cc2n1O` here?
A: 95.2 µM

Q: Which TGI does the source give for `CCN(CC)CCNC(=O)c1cc2cc(NC(=O)c3cc4cc([N+](=O)[O-])ccc4[nH]3)ccc2[nH]1` here?
A: > 100 µM

Q: How did the TGI turn out when `COc1ccc(/C=c2\sc3n(c2=O)CCN=3)cc1` was run?
A: > 100 µM
